Patent US20240000075A1, “FUNGICIDAL ARYL AMIDINES” (CORTEVA AGRISCIENCE LLC, priority 2020, published 2024)
Where two headings read alike, the source gives them in different places.

Experiments:
Phakopsora pachyrhizi = assay: Asian soybean rust, whole-plant fungicidal activity (PHAKPA); assay type: in vivo; conditions: read-out: % Disease Control Rating PHAKPA
Procedure: Example C: Evaluation of Fungicidal Activity: Asian Soybean Rust (Phakopsora pachyrhizi; Bayer Code […]) Technical grades of materials were dissolved in acetone, which were then mixed with nine volumes of H2O containing 0.011% Tween-20. The fungicide solutions were applied onto soybean seedlings using an automated booth sprayer to run-off. All sprayed plants were allowed to air dry prior to further handling. Soybean plants (variety 'Williams 82') were grown in soil-less potting mix, with one plant per pot. Ten-day-old seedlings were used for testing. Plants were inoculated as described in Example A. Plants were incubated for 24 h in a dark dew room with 100% relative humidity then transferred to a growth room for disease to develop. Fungicide formulation and application were made as described in Example A. When disease symptoms were fully expressed, disease severity was assessed on the sprayed leaves on a scale of 0 to 100 percent. Percent disease control was calculated using the ratio of disease severity on treated plants relative to untreated plants.

Zymoseptoria tritici = assay: Septoria leaf blotch of wheat, whole-plant fungicidal activity (SEPTTR); assay type: in vivo, Zymoseptoria tritici on wheat plants (variety 'Yuma'); conditions: read-out: % Disease Control Rating SEPTTR
Procedure: Example A: Evaluation of Fungicidal Activity: Septoria Leaf Blotch of Wheat (Zymoseptoria tritici; Bayer Code […]) Technical grades of materials were dissolved in acetone, which were then mixed with nine volumes of water (H2O) containing 110 ppm Triton X-100. The fungicide solutions were applied onto wheat seedlings using an automated booth sprayer to run-off. All sprayed plants were allowed to air dry prior to further handling. All fungicides were evaluated using the aforementioned method for their activity vs. all target diseases, unless stated otherwise. Wheat plants (variety 'Yuma') were grown from seed in a greenhouse in soil-less potting mix until the first leaf was fully emerged, with 7-10 seedlings per pot. These plants were inoculated with an aqueous spore suspension of Zymoseptoria tritici either 3 days prior to fungicide treatment (3 day curative; 3DC) or 1 day after fungicide treatment (1 day protectant; 1DP). After inoculation the plants were kept in 100% relative humidity for three days to permit spores to germinate and infect the leaf. The plants were then transferred to a greenhouse for disease to develop. When disease symptoms were fully expressed on the 1st leaves of untreated plants, infection levels were assessed on a scale of 0 to 100 percent disease severity. Percent disease control was calculated using the ratio of disease severity on treated plants relative to untreated plants.

Puccinia triticina = assay: Wheat brown rust, whole-plant fungicidal activity (PUCCRT); assay type: in vivo, Puccinia triticina on wheat plants (variety 'Yuma'); conditions: 24 h, 1DP (1 day protectant), read-out: % Disease Control Rating PUCCRT
Procedure: Technical grades of materials were dissolved in acetone, which were then mixed with nine volumes of water (H2O) containing 110 ppm Triton X-100. The fungicide solutions were applied onto wheat seedlings using an automated booth sprayer to run-off. All sprayed plants were allowed to air dry prior to further handling. All fungicides were evaluated using the aforementioned method for their activity vs. all target diseases, unless stated otherwise.
Example B: Evaluation of Fungicidal Activity: Wheat Brown Rust (Puccinia triticina; Synonym: Puccinia recondita f sp. tritici; Bayer Code PUCCRT)
Wheat plants (variety ‘Yuma’) were grown from seed in a greenhouse in soil-less potting mix until the first leaf was fully emerged, with 7-10 seedlings per pot. These plants were inoculated with an aqueous spore suspension of Puccinia triticina after fungicide treatments. After inoculation, the plants were kept in a dark dew room with 100% relative humidity overnight to permit spores to germinate and infect the leaf. The plants were then transferred to a greenhouse for disease to develop. Fungicide formulation, application and disease assessment followed the procedures as described in Example A.

Rhynchosporium commune = assay: Leaf blotch of barley, whole-plant fungicidal activity (RHYNSE); assay type: in vivo; conditions: 24 h, 1DP (1 day protectant), read-out: % Disease Control Rating RHYNSE
Procedure: Technical grades of materials were dissolved in acetone, which were then mixed with nine volumes of water (H2O) containing 110 ppm Triton X-100. The fungicide solutions were applied onto wheat seedlings using an automated booth sprayer to run-off. All sprayed plants were allowed to air dry prior to further handling. All fungicides were evaluated using the aforementioned method for their activity vs. all target diseases, unless stated otherwise. Example D: Evaluation of Fungicidal Activity: Leaf Blotch of Barley (Rhynchosporium commune; Bayer Code […]) Barley plants (variety 'Harrington') were grown from seed in a greenhouse in soil-less potting mix until the first leaf was fully emerged, with 7-10 seedlings per pot. These plants were inoculated with an aqueous spore suspension of Rhynchosporium commune after fungicide treatments. After inoculation, the plants were kept in a dark dew room with 100% relative humidity for two days to permit spores to germinate and infect the leaf. The plants were then transferred to a greenhouse for disease to develop. Fungicide formulation and application were made as described in Example A. Disease assessment was conducted as described in Example A.

Structure (SMILES)	pest or weed control at 200 ppm (Phakopsora pachyrhizi; 24 h, 1DP (1 day protectant))	pest or weed control at 200 ppm (Phakopsora pachyrhizi; 72 h, 3DC (3 day curative))	pest or weed control at 200 ppm (Zymoseptoria tritici; 24 h, 1DP (1 day protectant))	pest or weed control at 200 ppm (Zymoseptoria tritici; 72 h, 3DC (3 day curative))	pest or weed control at 200 ppm (Puccinia triticina)	pest or weed control at 200 ppm (Rhynchosporium commune)
CCc1ccc(CC(=O)c2cc(C)c(/N=C/N(C)CC)cc2C)cc1 [Compound 6]	> 85%	> 85%	> 85%	20 to 50%	> 85%	> 85%
CCN(C)/C=N/c1ccc(C(=O)Cc2ccc(C)cc2F)c(C)c1C [Compound 11]	> 85%	> 85%	< 20%	< 20%	< 20%	< 20%
CCN(C)/C=N/c1ccc(C(=O)Cc2ccc(C)cc2)c(C)c1C [Compound 12]	50 to 85%	50 to 85%	< 20%	< 20%	< 20%	< 20%
CCN(C)/C=N/c1ccc(C(=O)Cc2ccccc2)c(C)c1C [Compound 16]	50 to 85%	> 85%	< 20%	< 20%	< 20%	< 20%
CCN(C)/C=N/c1cc(C)c(C(=O)C2CCCC2)cc1C [Compound 17]	> 85%	> 85%	50 to 85%	< 20%	> 85%	> 85%
CCN(C)/C=N/c1cc(C)c(C(=O)Cc2ccccc2F)cc1C [Compound 18]	> 85%	> 85%	50 to 85%	< 20%	50 to 85%	> 85%
CCN(C)/C=N/c1cc(C)c(C(=O)CCC(F)(F)F)cc1C [Compound 19]	> 85%	> 85%	< 20%	20 to 50%	> 85%	20 to 50%
CCN(C)/C=N/c1cc(C)c(C(=O)Cc2ccc(F)cc2F)cc1C [Compound 20]	> 85%	> 85%	< 20%	< 20%	> 85%	> 85%
CCN(C)/C=N/c1cc(C)c(C(=O)CC(C)(C)C)cc1C [Compound 21]	> 85%	> 85%	50 to 85%	< 20%	> 85%	> 85%
CCN(C)/C=N/c1cc(C)c(C(=O)CCC(C)C)cc1C [Compound 22]	> 85%	> 85%	< 20%	< 20%	> 85%	> 85%
CCN(C)/C=N/c1cc(C)c(C(=O)Cc2c(F)cc(F)cc2F)cc1C [Compound 23]	> 85%	> 85%	20 to 50%	< 20%	> 85%	> 85%
CCN(C)/C=N/c1cc(C)c(C(=O)Cc2cccc(C(=O)OC)c2)cc1C [Compound 24]	< 20%	< 20%	< 20%	< 20%	> 85%	< 20%
CCN(C)/C=N/c1cc(C)c(C(=O)C2CCC2)cc1C [Compound 25]	> 85%	> 85%	20 to 50%	< 20%	> 85%	> 85%
CCN(C)/C=N/c1cc(C)c(C(=O)C2CCCCC2)cc1C [Compound 26]	> 85%	> 85%	> 85%	20 to 50%	> 85%	> 85%
C=CCN(C)/C=N/c1cc(C)c(C(=O)CC2CCCCC2)cc1C [Compound 39]	50 to 85%	> 85%				
Cc1cc(C(=O)CC2CCCCC2)c(C)cc1/N=C/N(C)C1CCCCC1 [Compound 40]	< 20%	< 20%				
Cc1cc(C(=O)CC2CCCCC2)c(C)cc1/N=C/N1CCCC1 [Compound 41]	> 85%	> 85%				
Cc1cc(C(=O)CC2CCCCC2)c(C)cc1/N=C/N1CCCCC1 [Compound 42]	> 85%	> 85%				
Cc1cc(C(=O)CC2CCCCC2)c(C)cc1/N=C/N1CCOCC1 [Compound 43]	< 20%	< 20%				
Cc1cc(C(=O)CC2CCCCC2)c(C)cc1/N=C/N(C)c1ccccc1 [Compound 44]	< 20%	< 20%				
CCN(C)/C=N/c1ccc(C(=O)C2CCC2)cc1C [Compound 95]	20 to 50%	20 to 50%			> 85%	
CCN(C)/C=N/c1ccc(C(=O)CC2CCCC2)cc1 [Compound 97]	50 to 85%	50 to 85%			50 to 85%	
CCN(C)/C=N/c1cc(C(F)(F)F)c(C(=O)C2CCC2)cc1C [Compound 98]	20 to 50%	20 to 50%			< 20%	
CCN(C)/C=N/c1cc(OC)c(C(=O)C2CCC2)cc1C [Compound 99]	> 85%	> 85%			> 85%	
CCN(C)/C=N/c1cc(C)c(C(=O)C2CCC2)cc1C(F)(F)F [Compound 100]	> 85%	> 85%			> 85%	
CCN(C)/C=N/c1ccc(C(=O)C2CCC2)c(C)c1 [Compound 101]	< 20%	< 20%			< 20%	
CCN(C)/C=N/c1cc(C)c(C(=O)C2CCC2)cc1F [Compound 102]	50 to 85%	> 85%			> 85%	
CCN(C)/C=N/c1cc(C)c(C(=O)C2CCC2)cc1OC [Compound 103]	20 to 50%	> 85%			50 to 85%	
CCN(C)/C=N/c1ccc(C(=O)Cc2c(F)cc(F)cc2F)cc1C [Compound 104]	50 to 85%	> 85%			> 85%	
